Common to all, as to format: cell-based
For assay [1], the system named is rabbit corneal epithelial cell. The assay can be described thus: Test Example 1: increase in cell number, cultured rabbit corneal epithelial cell (Cell Counting Kit-8). Particulars: 48 hours, no addition group = 100%, average ± standard deviation, N = 5. As for the experimental part: A male rabbit (Japanese white, […] LABES Co., Ltd.) was used. The experimental animal was used according to the International Guiding Principles for Biomedical Research Involving Animals.
A corneal epithelial cell was prepared from rabbit eyeballs. A cornea was excised from isolated eyeballs, and stored in Dulbecco's phosphate buffered saline (D-PBS; Invitrogen), and this was transferred to a clean bench. The following cell preparation procedures were all performed sterilely.
The isolated corneal segment was washed with D-PBS with 1% penicillin-streptomycin (Invitrogen) added thereto three times, and was transferred to a minimum essential medium (MEM; Invitrogen). A corneal endothelial cell and a Descemet's membrane of the corneal segment immersed in MEM were peeled with a knife (Alcon) for ocular operation, and the corneal segment (corneal stroma and corneal epithelium) after peeling was transferred to MEM to which dispase II (Roche Diagnostics) had been added to 2.4 U/mL. This was incubated at 37° C. for 1 hour and, thereafter, the dispase II-treated corneal segment was transferred to MEM. The corneal epithelium of the corneal segment immersed in MEM was peeled with the knife for ocular operation, and the corneal segment residue (corneal stroma) was removed from MEM. The peeled corneal epithelial cell and the MEM containing same were recovered in a 50 mL centrifuge tube, subjected to centrifugation at 1,500 rpm for 5 minutes at room temperature. The supernatant was discarded to give a corneal epithelial cell layer. To the corneal epithelial cell layer was added 1 mL of trypsin-EDTA (Invitrogen) and, after thorough mixing, the cells were incubated at 37° C. for 5 minutes to dissociate adhesion between the cells. To this was added 9 mL of MEM containing 10% fetal bovine serum (FBS; Invitrogen) to stop the enzymatic reaction, and this was subjected again to centrifugation at room temperature and 1,500 rpm for 5 minutes to obtain the corneal epithelial cell layer. To the resulting corneal epithelial cell layer was added […] of a serum-free liquid medium for proliferating a normal rabbit corneal epithelial cell (RCGM2; Kurabo Industries LTD.) to suspend the cell, and this was seeded into a culture dish (IWAKI) for culturing a cell having a diameter of 10 cm, to which 9 mL of RCGM2 had been added. […] The culture medium was exchanged with a fresh culture medium every 48 hours until the test day.
As the test substance, the following compounds were used. • PPARα agonist: WY-14643 (Calbiochem) and fenofibrate (Sigma-Aldrich) • PPARδ agonist: L-165041 (Sigma-Aldrich)
For studying the effect of promoting cell proliferation by each test substance, a culture medium prepared by removing a mouse-derived epithelial growth factor (mEGF) attached to RCGM2, from RCGM2, was used as a basal medium, while as a positive control for confirming the effect of promoting cell proliferation, a medium with an mEGF added thereto (basal medium+10 ng/mL mEGF) was used according to instructions of an RCGM2 preparation protocol.
As a culture dish for a test of cell proliferation promotion, a 96-well culture dish for tissue culture (Corning) was used. On the day before the test, each 50 μL of 0.01% type I collagen (Nitta Gelatin Inc.) was dispensed into each well of the culture dish, and coating was performed at 4° C. until immediately before the test. On the test day, after a type I collagen solution was removed, the bottom of the culture dish was washed three times using D-PBS, and this was used in the test as a collagen-treated culture dish.
In the test, a rabbit corneal epithelial cell which had been cultured to subconfluent in a culture dish having a diameter of 10 cm was used. After the culture medium was removed, the bottom of the culture dish was washed two times using D-PBS, to this was added 1 mL of trypsin-EDTA, this was incubated at 37° C. for 5 minutes and thereby, the cell was peeled from the bottom of the culture dish. […]
(In general: Formazan colour is commonly taken as a measure of viable cells.)

In assay [2] the test system is monkey meibomian gland epithelial cell. The assay can be described thus: Test Example 8: increase in number of monkey meibomian gland epithelial cells (Cell Counting Kit-8). Particulars: 3 x 48 hours; for Cell proliferation (%): no addition group = 100%, average ± standard deviation, N = 5. An excerpt:
For studying the effect of promoting cell proliferation by each test substance, a culture medium prepared by removing the supplement attached to DK-SFM, from DK-SFM, was used as a basal medium, while as a positive control for confirming the cell proliferation promoting effect, a culture medium with the supplement added thereto (basal medium+supplement) was used according to instructions of an DK-SFM preparation protocol. […] In the test, a monkey meibomian gland epithelial cell which had been cultured to subconfluent, suspended in a cell banker (Nippon Zenyaku Kogyo Co., Ltd.), and cryopreserved in liquid nitrogen was used. The cell which had been cryopreserved was thawed, and transferred to a 50 mL centrifuge tube and a 10-fold amount of DK-SFM was added thereto. […] Each 64 μL of this cell suspension was dispensed into each well so that the cell number per bottom area (0.32 cm^2) of the collagen-treated 96-well culture dish for tissue culture became 4×10^4 cells/cm^2. […] After 48 hours from initial culture medium exchange, the culture medium was exchanged with a freshly prepared culture medium of each of [1] to [4]. Further, after 48 hours therefrom, the culture medium was exchanged again with a freshly prepared culture medium of each of [1] to [4].

In assay [3] the test system is normal human corneal epithelial cell. Put plainly: Test Example 5: increase in cell number, normal human corneal epithelial cell, 24 hours (Cell Counting Kit-8). As to conditions: no addition group = 100%, average ± standard deviation, N = 3 to 4. On the procedure:
A normal human corneal epithelial cell (KURABO) was used.
As the test substance, the following compounds were used. PPARδ agonist: L-165041 (Sigma-Aldrich), GW-501516 (Alexis)
In addition, as a positive control for confirming the cell proliferation promoting effect, a medium in which a mouse-derived epithelial growth factor (mEGF) contained in an HCGS proliferation additive set (KURABO) was added to a basal medium (basal medium+1 ng/mL mEGF) was used.
This cell suspension was seeded on a fibronectin-coated multiwell plate (24 well, BECTON DICKINSON) so that the cell number became 2×10^4 cells/500 μL/well (since the bottom area is 2 cm^2, the number is 1×10^4 cells/cm^2).
Further, 24 hours thereafter, the culture medium was exchanged with each 400 μL of the following culture media. • [1] Only basal medium (no addition group) • [2] Basal medium+mEGF (final concentration: 1 ng/mL; positive control group) • [3] Basal medium+L-165041 (final concentration: 0.01 μM and 0.1 μM) • [4] Basal medium+GW-501516 (final concentration: 0.001 μM and 0.01 μM)

`CCCc1c(OCCCOc2ccc(OCC(=O)O)cc2)ccc(C(C)=O)c1O` [L-165041, (4-(3-(4-acetyl-3-hydroxy-2-propyl)phenoxy)propoxyphenoxy)acetic acid]: the “Cell proliferation (%)” value in assay [1] (10^−6 M) is on record as 182.2 ± 13.0%; in assay [1] (10^−7 M), 163.3 ± 8.2%; in assay [2] (10^−6 M), 169.1 ± 19.6%; in assay [2] (10^−7 M) it was 142.9 ± 22.3%; in assay [3] (10^−7 M) it was 127.8 ± 6.0%; in assay [3] (10^−8 M), 128.1 ± 5.3%. Also, the “cell proliferation compared to the no addition group (in words)” value in assay [2] (10^−6 M) is recorded as “significantly higher than in the no addition group”.

For the origin of these results see patent US9096538B2, “Pharmaceutical comprising PPAR agonist” (Senju Pharmaceutical Co., Ltd., priority 2005, dated 2015).
